As usually defined, the IC50 is the midpoint of a concentration-inhibition curve. One may read the microsomal CLint as a measure of how fast metabolising enzymes remove a compound, apart from limits set by blood flow. A word on the logD: it is lipophilicity at a set pH, counting ionised and neutral species. Higher therefore signals higher lipophilicity. What is called clearance is the rate of elimination divided by the concentration. Read a low clearance as inefficient removal. Broadly, the half-life is how long it takes for the measured level to halve. A low value points to rapid decline. In general, bioavailability refers to the share of a dose that reaches the circulation, judged against a reference dose that is usually intravenous. By pKa is commonly meant the negative logarithm of the acid dissociation constant. A word on the solubility: it is how much of the substance goes into solution per volume. High values mean much dissolved substance, low ones little dissolved substance. The term Papp A→B denotes the apparent permeability from the apical to the basolateral side of a cell layer. A word on the Papp B→A: it is the apparent permeability from the basolateral to the apical side of a cell layer.

For data set [1], the target named is T1, C-C chemokine receptor type 5 (Homo sapiens, UniProt P51681). Kind of data set: Displacement of [125I]MIP-1alpha from human recombinant CCR5 expressed in CHO cells. It counts as cell-based. Background: In a radioligand displacement assay an active substance lowers the binding of a labelled ligand.
Target sequence in this assay (P51681 whole entry): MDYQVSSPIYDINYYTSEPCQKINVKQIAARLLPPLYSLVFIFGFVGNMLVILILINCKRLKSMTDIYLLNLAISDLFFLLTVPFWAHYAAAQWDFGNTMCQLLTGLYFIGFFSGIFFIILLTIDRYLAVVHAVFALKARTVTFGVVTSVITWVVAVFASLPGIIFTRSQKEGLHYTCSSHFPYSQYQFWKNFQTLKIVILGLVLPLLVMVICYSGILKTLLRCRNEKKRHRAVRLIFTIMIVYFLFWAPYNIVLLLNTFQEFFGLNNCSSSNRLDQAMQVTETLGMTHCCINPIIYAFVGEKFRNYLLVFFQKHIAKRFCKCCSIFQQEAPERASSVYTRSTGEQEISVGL
A short description of data set [2]: Intrinsic clearance in human liver microsomes.
The target in data set [3] is Voltage-gated inwardly rectifying potassium channel KCNH2 (Homo sapiens, UniProt Q12809). Kind of data set: Displacement of 3,7-Bis[2-(4-nitro[3,5-3H]phenyl)ethyl]-3,7-diazabicyclo[3.3.1]nonane from human ERG expressed in HEK cells after 3 hrs.
Sequence of Voltage-gated inwardly rectifying potassium channel KCNH2 (Q12809 whole entry): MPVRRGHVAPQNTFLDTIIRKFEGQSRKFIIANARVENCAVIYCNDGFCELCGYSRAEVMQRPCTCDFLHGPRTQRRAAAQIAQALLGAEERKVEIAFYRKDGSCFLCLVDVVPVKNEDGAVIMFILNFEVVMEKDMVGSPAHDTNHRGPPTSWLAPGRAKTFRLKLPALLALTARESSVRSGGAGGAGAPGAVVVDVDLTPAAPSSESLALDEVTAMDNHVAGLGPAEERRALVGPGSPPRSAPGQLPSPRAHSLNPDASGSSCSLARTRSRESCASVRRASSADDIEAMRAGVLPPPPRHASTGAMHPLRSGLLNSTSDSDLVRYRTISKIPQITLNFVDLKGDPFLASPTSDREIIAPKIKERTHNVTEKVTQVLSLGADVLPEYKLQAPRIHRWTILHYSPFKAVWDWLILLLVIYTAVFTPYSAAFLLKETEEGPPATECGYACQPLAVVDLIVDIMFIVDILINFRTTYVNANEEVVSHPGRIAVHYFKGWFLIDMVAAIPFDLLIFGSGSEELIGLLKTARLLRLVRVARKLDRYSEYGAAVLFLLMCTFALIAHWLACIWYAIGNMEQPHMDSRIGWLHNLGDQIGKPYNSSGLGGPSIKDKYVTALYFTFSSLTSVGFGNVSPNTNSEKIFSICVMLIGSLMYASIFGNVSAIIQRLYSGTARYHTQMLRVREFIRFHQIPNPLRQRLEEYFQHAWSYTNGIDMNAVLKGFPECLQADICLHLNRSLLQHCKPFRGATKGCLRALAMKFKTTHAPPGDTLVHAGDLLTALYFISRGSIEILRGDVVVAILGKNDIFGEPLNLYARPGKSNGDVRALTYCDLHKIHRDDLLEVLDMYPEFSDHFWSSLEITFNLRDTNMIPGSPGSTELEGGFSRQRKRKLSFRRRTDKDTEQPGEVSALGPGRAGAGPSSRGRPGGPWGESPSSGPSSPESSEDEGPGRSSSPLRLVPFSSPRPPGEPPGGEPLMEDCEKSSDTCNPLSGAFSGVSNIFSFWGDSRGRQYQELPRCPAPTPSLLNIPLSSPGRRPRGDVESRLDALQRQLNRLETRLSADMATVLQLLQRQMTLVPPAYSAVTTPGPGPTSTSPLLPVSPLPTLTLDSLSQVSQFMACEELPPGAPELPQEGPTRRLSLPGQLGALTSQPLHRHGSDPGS
Data set [4] is described as follows: Lipophilicity, log D of the compound at pH 7.4. As to conditions: buffer.
Data set [5] is described as follows: Clearance in rat at 1 to 2 mg/kg, iv. It counts as ADME, organism-based. The arrangement: dose 1-2 mg/kg, route intravenous. Particulars: in vivo.
The nature of data set [6]: Volume of distribution at steady state in rat at 1 to 2 mg/kg, iv. It counts as ADME, organism-based. On the set-up: dose 1-2 mg/kg, route intravenous. As to conditions: in vivo, read-out: Vdss.
Data set [7] is described as follows: Half life in rat at 1 to 2 mg/kg, iv. In kind it is ADME, organism-based. The arrangement: dose 1-2 mg/kg, route intravenous. As to conditions: in vivo.
Data set [8] can be described thus: Oral bioavailability in rat at 2 to 5 mg/kg. In kind it is ADME, organism-based. As to conditions: in vivo.
Data set [9] is described as follows: Clearance in male dog at 1 to 2 mg/kg, iv. As to conditions: in vivo. On the set-up: dose 1-2 mg/kg, route intravenous. It counts as ADME, organism-based, Canis lupus familiaris.
The nature of data set [10]: Volume of distribution at steady state in male dog at 1 to 2 mg/kg, iv. In kind it is ADME, organism-based, Canis lupus familiaris. The arrangement: dose 1-2 mg/kg, route intravenous. Particulars: in vivo, read-out: Vdss.
Data set [11] is described as follows: Half life in male dog at 1 to 2 mg/kg, iv. It counts as ADME, organism-based, Canis lupus familiaris. The arrangement: dose 1-2 mg/kg, route intravenous. As to conditions: in vivo.
Data set [12] can be described thus: Oral bioavailability in male dog at 2 to 5 mg/kg. It counts as ADME, organism-based, Canis lupus familiaris. As to conditions: in vivo.
Data set [13] can be described thus: Clearance in female dog at 1 to 2 mg/kg, iv. Particulars: in vivo. The arrangement: dose 1-2 mg/kg, route intravenous. In kind it is ADME, organism-based, Canis lupus familiaris.
The nature of data set [14]: Volume of distribution at steady state in female dog at 1 to 2 mg/kg, iv. It counts as ADME, organism-based, Canis lupus familiaris. The arrangement: dose 1-2 mg/kg, route intravenous. As to conditions: in vivo, read-out: Vdss.
Data set [15] is described as follows: Half life in female dog at 1 to 2 mg/kg, iv. As to conditions: in vivo. The arrangement: dose 1-2 mg/kg, route intravenous. It counts as ADME, organism-based, Canis lupus familiaris.
Data set [16] can be described thus: Oral bioavailability in female dog at 2 to 5 mg/kg. It counts as ADME, organism-based, Canis lupus familiaris. As to conditions: in vivo.
In data set [17] the target is T1, C-C chemokine receptor type 5. Briefly: Antagonist activity at CCR5 in human whole blood assessed as inhibition of MIP-1beta-induced receptor internalization. It counts as functional, tissue-based.
Target sequence in this assay (P51681 whole entry, looked up): as the sequence (P51681 whole entry) above
Data set [18] can be described thus: Dissociation constant, pKa of the compound. In kind it is physicochemical.
Data set [19] in a line: Aqueous solubility of the compound at pH 7.4. It counts as physicochemical. As to conditions: buffer.
The target in another data set is T2, Cytochrome P450 1A1 (Homo sapiens, UniProt P04798).
T2 sequence (P04798 whole entry): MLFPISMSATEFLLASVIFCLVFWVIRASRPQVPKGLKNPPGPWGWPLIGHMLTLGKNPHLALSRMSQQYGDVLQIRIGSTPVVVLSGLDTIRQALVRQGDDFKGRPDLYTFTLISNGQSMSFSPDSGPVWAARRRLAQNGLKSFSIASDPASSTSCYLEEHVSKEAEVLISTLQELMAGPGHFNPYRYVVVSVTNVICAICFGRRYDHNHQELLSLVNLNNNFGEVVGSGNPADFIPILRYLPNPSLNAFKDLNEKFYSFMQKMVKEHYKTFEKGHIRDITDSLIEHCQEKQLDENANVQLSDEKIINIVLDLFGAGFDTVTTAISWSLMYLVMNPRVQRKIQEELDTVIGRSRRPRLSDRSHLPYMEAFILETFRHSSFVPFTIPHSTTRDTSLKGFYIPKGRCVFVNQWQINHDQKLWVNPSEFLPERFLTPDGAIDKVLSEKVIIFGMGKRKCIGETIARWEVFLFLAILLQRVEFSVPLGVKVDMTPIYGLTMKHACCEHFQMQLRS
Briefly: Inhibition of CYP1A1. In kind it is ADME.

For a further data set, the target named is Cytochrome P450 2C9 (Homo sapiens, UniProt P11712). Kind of data set: Inhibition of CYP2C9. It counts as ADME.
Sequence of Cytochrome P450 2C9 (P11712 whole entry): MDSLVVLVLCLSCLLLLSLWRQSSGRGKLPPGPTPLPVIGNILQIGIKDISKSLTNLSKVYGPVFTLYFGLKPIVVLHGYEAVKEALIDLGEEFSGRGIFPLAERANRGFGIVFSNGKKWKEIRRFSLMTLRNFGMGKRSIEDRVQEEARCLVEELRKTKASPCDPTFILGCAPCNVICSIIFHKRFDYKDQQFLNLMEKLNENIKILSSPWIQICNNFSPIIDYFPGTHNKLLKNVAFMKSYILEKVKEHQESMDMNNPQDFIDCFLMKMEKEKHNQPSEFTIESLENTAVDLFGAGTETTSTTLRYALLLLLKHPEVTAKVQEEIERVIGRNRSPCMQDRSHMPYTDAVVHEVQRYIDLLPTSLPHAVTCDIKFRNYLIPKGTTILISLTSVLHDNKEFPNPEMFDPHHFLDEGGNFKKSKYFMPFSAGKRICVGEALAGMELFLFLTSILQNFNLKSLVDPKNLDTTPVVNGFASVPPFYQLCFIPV
In another data set the target is Cytochrome P450 2C19 (Homo sapiens, UniProt P33261). Kind of data set: Inhibition of CYP2C19. In kind it is ADME.
Sequence of Cytochrome P450 2C19 (P33261 whole entry): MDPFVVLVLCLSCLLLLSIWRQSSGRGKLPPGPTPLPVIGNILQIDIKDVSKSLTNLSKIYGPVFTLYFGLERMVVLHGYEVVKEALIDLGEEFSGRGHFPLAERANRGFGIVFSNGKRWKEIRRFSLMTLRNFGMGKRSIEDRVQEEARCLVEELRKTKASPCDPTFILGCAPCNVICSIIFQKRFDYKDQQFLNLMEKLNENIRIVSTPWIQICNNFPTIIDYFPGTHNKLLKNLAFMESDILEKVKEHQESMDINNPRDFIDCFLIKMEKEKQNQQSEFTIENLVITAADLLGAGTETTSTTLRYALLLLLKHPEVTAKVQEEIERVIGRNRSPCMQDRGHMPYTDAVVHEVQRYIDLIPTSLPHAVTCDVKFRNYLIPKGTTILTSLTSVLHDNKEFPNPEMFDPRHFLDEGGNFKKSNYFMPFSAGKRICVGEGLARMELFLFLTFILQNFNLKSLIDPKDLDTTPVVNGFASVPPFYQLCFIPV
The next data set addresses Cytochrome P450 2D6 (Homo sapiens, UniProt P10635). Kind of data set: Inhibition of CYP2D6. It counts as ADME.
A further data set addresses Cytochrome P450 3A4 (Homo sapiens, UniProt P08684). Kind of data set: Inhibition of CYP3A4. It counts as ADME.
The nature of data set [20]: Apparent permeability from apical to basal side of human Caco2 cells at 10 uM. It counts as ADME, cell-based. Particulars: Caco-2.
Data set [21] is described as follows: Apparent permeability from basal to apical side of human Caco2 cells at 10 uM. Particulars: Caco-2. In kind it is ADME, cell-based. A general note: Passage across Caco-2 layers is used to estimate intestinal permeability.
Data set [22] is described as follows: Apparent permeability from apical to basal side of human Caco2 cells at 100 uM. It counts as ADME, cell-based. Particulars: Caco-2.
Data set [23] can be described thus: Apparent permeability from basal to apical side of human Caco2 cells at 100 uM. It counts as ADME, cell-based. Particulars: Caco-2.
The nature of data set [24]: Fraction unbound in human plasma. In kind it is ADME, cell-free.
For the next data set, the species on record is Homo sapiens. Briefly: Antiarthritis activity in rheumatoid arthritis patient at 150 mg. In kind it is functional, organism-based.
The nature of data set [25]: Plasma protein binding in human. In kind it is ADME, cell-free. As to conditions: read-out: PPB (converted).

In brackets after ≈: the same amount, converted by molar mass. Activity calls are given as the source filed them. No cut-off for these calls is given here. A value given as a limit tells only on which side of the number the result lay.

Sequence of Cytochrome P450 3A4 (P08684 whole entry): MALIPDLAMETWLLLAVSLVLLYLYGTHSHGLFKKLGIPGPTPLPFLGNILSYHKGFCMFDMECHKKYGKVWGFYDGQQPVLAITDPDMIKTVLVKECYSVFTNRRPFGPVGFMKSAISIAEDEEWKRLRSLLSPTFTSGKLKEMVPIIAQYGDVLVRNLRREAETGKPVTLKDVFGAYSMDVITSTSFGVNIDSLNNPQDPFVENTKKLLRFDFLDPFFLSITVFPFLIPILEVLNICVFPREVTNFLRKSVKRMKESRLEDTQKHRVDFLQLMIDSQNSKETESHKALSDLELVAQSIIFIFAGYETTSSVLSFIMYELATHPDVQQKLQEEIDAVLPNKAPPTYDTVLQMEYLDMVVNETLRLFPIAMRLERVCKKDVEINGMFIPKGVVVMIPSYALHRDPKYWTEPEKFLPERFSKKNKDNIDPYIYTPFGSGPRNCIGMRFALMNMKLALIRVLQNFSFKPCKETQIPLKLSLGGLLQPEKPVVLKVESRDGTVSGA
Sequence of Cytochrome P450 2D6 (P10635 whole entry): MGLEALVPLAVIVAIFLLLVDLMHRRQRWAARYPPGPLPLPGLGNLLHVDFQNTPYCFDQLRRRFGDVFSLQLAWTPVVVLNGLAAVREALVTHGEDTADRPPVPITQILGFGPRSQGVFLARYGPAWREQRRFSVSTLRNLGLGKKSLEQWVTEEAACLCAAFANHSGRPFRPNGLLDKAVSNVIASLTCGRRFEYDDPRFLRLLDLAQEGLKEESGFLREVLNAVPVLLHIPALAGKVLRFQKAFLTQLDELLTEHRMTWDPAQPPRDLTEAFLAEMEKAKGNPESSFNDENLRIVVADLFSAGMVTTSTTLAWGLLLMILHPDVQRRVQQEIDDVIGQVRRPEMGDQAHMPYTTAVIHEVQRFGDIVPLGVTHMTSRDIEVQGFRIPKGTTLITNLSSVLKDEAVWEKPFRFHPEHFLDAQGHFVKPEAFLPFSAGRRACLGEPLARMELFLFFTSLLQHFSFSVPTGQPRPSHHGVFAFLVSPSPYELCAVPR

In the case of `CCN(C(=O)Cc1ccc(S(C)(=O)=O)cc1)C1CCN(CC[C@@H](c2cc(F)cc(F)c2)N2CCN(S(C)(=O)=O)CC2)CC1`, the IC50 in data set [1] was 0.0037 µM; in [3], more than 32 µM. The same compound showed a microsomal CLint in data set [2] (microsomes) of 8 µL/min/mg. This compound came in with a logD in data set [4] of 1.2. Besides, the figures for the clearance in data set [5], in [9] and in data set [13] were 71 mL/min/kg, 12 mL/min/kg and 7.5 mL/min/kg, respectively. The values for the Vd in data set [6], in data set [10] and in data set [14] were 7.7 L/kg, 3.2 L/kg and 2.2 L/kg, respectively. Moreover, the half-life in data set [7] was 2.4 h; in [11], 8.3 h; in data set [15], 4.7 h. The bioavailability in data set [8] amounted to 7.3%; in data set [12] it was 15%; in data set [16] it was 22%.

Take `CCN(C(=O)Cc1ccc(S(C)(=O)=O)cc1)C1CCN(CC[C@@H](c2cc(F)cc(F)c2)C2CCN(S(C)(=O)=O)CC2)CC1` [AZD5672]: the IC50 in data set [1] is 0.00026 µM; against Cytochrome P450 1A1, more than 50 µM; on Cytochrome P450 2C9 it was more than 50 µM; on Cytochrome P450 2C19, more than 50 µM; at Cytochrome P450 2D6 it was 23 µM; against Cytochrome P450 3A4, 9 µM. The compound further registered a microsomal CLint in [2] (liver microsomes) of 18 µL/min/mg. This compound showed a logD in data set [4] of 1.5. Also, the values for the clearance in data set [5], in [9] and in [13] were 38 mL/min/kg, 15 mL/min/kg and 22 mL/min/kg, respectively. In addition, the results for the Vd in data set [6], in data set [10] and in data set [14] were 5 L/kg, 4.5 L/kg and 5.8 L/kg, respectively. The half-life in data set [7] was 2.1 h; in data set [11], 3.9 h; in data set [15], 3.8 h. Further, the bioavailability came out at 41% in data set [8], 46% in data set [12] and 51% in data set [16]. In addition, in data set [17], the A2 was 0.76 nM. The same compound showed a pKa in [18] of 8.4. Further, the solubility in data set [19] was 2700 µM (≈ 1730 µg/mL). In addition, the Papp A→B at 10 µM in [20] came to 0.7 ×10⁻⁶ cm/s. In [21], the Papp B→A at 10 µM was 9.2 ×10⁻⁶ cm/s. Also, in data set [22], the Papp A→B at 100 µM came out at 1.4 ×10⁻⁶ cm/s. The Papp B→A at 100 µM in data set [23] was determined as 11 ×10⁻⁶ cm/s. Further, the fraction unbound in data set [24] and in [25] was 0.08 throughout. The result in the data set filed under Homo sapiens was inactive.
